Source: ChEMBL document CHEMBL1201862, “PubChem BioAssay data set” (2004)
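How tested: cells in 96-well plates exposed to compound for 48 hours at five concentrations. Here, GI50 denotes the concentration required for 50% inhibition of growth.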 The source made the active and inactive calls. Cut-off read from the data, not from the text of the source: active = GI50 up to about 1.1 µM and inactive = higher.

Tests used:
Assay in all cases: NCI tumour cell line growth inhibition, 48 h
MOLT-4 = tested on: MOLT-4
OVCAR-4 = tested on: OVCAR-4
Hs-578T = tested on: Hs-578T
LOX IMVI = tested on: LOX IMVI
HCT-15 = tested on: HCT-15
CAKI-1 = tested on: CAKI-1
RPMI-8226 = tested on: RPMI-8226
786-0 = tested on: 786-0
SF-268 = tested on: SF-268
PC-3 = tested on: PC-3
HL-60 = tested on: HL-60
UACC-257 = tested on: UACC-257
SF-295 = tested on: SF-295
A549 = tested on: A549
SW-620 = tested on: SW-620
COLO 205 = tested on: COLO 205
RXF 393 = tested on: RXF 393
NCI-H226 = tested on: NCI-H226
Malme-3M = tested on: Malme-3M

| SMILES | GI50 (MOLT-4) | GI50 (OVCAR-4) | GI50 (Hs-578T) | GI50 (LOX IMVI) | GI50 (HCT-15) | GI50 (CAKI-1) | GI50 (RPMI-8226) | GI50 (786-0) | GI50 (SF-268) | GI50 (PC-3) | GI50 (HL-60) | GI50 (UACC-257) | GI50 (SF-295) | GI50 (A549) | GI50 (SW-620) | GI50 (COLO 205) | GI50 (RXF 393) | GI50 (NCI-H226) | GI50 (Malme-3M) |
| --- | --- | --- | --- | --- | --- | --- | --- | --- | --- | --- | --- | --- | --- | --- | --- | --- | --- | --- | --- |
| COc1cc(OC)nc(Nc2c(C#N)c3nc4ccccc4n3c3ccccc23)n1 | > 100 µM (inactive) | 22.3 µM (inactive) | 47.6 µM (inactive) | 21.4 µM (inactive) | > 100 µM | 29.1 µM (inactive) | > 100 µM (inactive) | 16.5 µM (inactive) | 29.9 µM (inactive) | 40.3 µM (inactive) | > 100 µM (inactive) | 52.7 µM (inactive) | 21.6 µM (inactive) | > 100 µM (inactive) | > 100 µM (inactive) | > 100 µM (inactive) | 39.8 µM (inactive) | 39.4 µM (inactive) |  |
| C[C@@H](C1CC[C@H]2[C@@H]3[C@@H]4O[C@@H]4[C@@]4(O)CC=CC(=O)[C@]4(C)[C@H]3C[C@H](O)[C@]12C)[C@H]1C[C@]2(C)O[C@]2(C)C(=O)O1 (some centres not stated) | > 100 µM (inactive) | > 100 µM (inactive) | > 100 µM (inactive) | > 100 µM (inactive) | > 100 µM | > 100 µM (inactive) | > 100 µM (inactive) | > 100 µM (inactive) | > 100 µM (inactive) | > 100 µM (inactive) | > 100 µM (inactive) | > 100 µM (inactive) | > 100 µM (inactive) | > 100 µM (inactive) | > 100 µM (inactive) | > 100 µM (inactive) |  | > 100 µM (inactive) | > 100 µM (inactive) |
| CCCCS(=O)(=O)CCC(N)C(=O)O (configuration not stated) | > 100 µM (inactive) | > 100 µM (inactive) | > 100 µM (inactive) |  | > 100 µM | > 100 µM (inactive) |  | > 100 µM (inactive) | > 100 µM (inactive) | > 100 µM (inactive) | > 100 µM (inactive) | > 100 µM (inactive) | > 100 µM (inactive) | > 100 µM (inactive) | > 100 µM (inactive) | > 100 µM (inactive) | 36.1 µM (inactive) | > 100 µM (inactive) | > 100 µM (inactive) |
| CC1=C(C)C(=O)C(C2=CC(=O)c3ccccc3C2=O)=C(C2=CC(=O)c3ccccc3C2=O)C1=O |  | 5.04 µM (inactive) | 3.62 µM (inactive) | 1.39 µM (inactive) | 0.646 µM | 2.95 µM (inactive) |  | 7.46 µM (inactive) | 8.15 µM (inactive) | 5.74 µM (inactive) | 0.234 µM (active) | 8.2 µM (inactive) | 12.3 µM (inactive) | 19.4 µM (inactive) | 2.79 µM (inactive) | 1.99 µM (inactive) | 2.52 µM (inactive) | 13.1 µM (inactive) | 0.514 µM (active) |
| COc1ccc(NC(=S)Nc2c(C)n(C)n(-c3ccccc3)c2=O)cc1 | > 100 µM (inactive) |  | > 100 µM (inactive) | > 100 µM (inactive) | > 100 µM | > 100 µM (inactive) | > 100 µM (inactive) | > 100 µM (inactive) | > 100 µM (inactive) | > 100 µM (inactive) | > 100 µM (inactive) | > 100 µM (inactive) | > 100 µM (inactive) | > 100 µM (inactive) | > 100 µM (inactive) | > 100 µM (inactive) | > 100 µM (inactive) | > 100 µM (inactive) | > 100 µM (inactive) |
| COc1ccccc1-n1nnc2c(N)nc(N)nc21 | > 100 µM (inactive) | > 100 µM (inactive) | > 100 µM (inactive) | > 100 µM (inactive) | > 100 µM | > 100 µM (inactive) | > 100 µM (inactive) | > 100 µM (inactive) | > 100 µM (inactive) | > 100 µM (inactive) | > 100 µM (inactive) | > 100 µM (inactive) | > 100 µM (inactive) | > 100 µM (inactive) | > 100 µM (inactive) | > 100 µM (inactive) |  | > 100 µM (inactive) | > 100 µM (inactive) |
| C=C(CO)C(=O)OC1CC(=C)C2CC(O)C(C)C2C2OC(=O)C(=C)C12 (configuration not stated) | 25.2 µM (inactive) | 61.1 µM (inactive) | 18.4 µM (inactive) | 29.9 µM (inactive) | 19.1 µM | 19.3 µM (inactive) | 24.5 µM (inactive) | 37.3 µM (inactive) | 20.7 µM (inactive) | 31.6 µM (inactive) | 25.8 µM (inactive) | 15.6 µM (inactive) | 19.4 µM (inactive) | 28.8 µM (inactive) | 22.9 µM (inactive) | 34.2 µM (inactive) | 20 µM (inactive) |  | 21.3 µM (inactive) |
| Oc1ccccc1/C=N/c1ccc(Oc2ccc(Cl)cc2)c(Cl)c1 | 30.1 µM (inactive) | 22.4 µM (inactive) | 19.7 µM (inactive) | 15.7 µM (inactive) | 16.3 µM | 23.2 µM (inactive) | 21.5 µM (inactive) | 26 µM (inactive) | 17.9 µM (inactive) | 20.9 µM (inactive) | 17.9 µM (inactive) | 28.6 µM (inactive) | 18.7 µM (inactive) | 20.6 µM (inactive) | 28.9 µM (inactive) | 21.8 µM (inactive) |  | 25.2 µM (inactive) | 19.5 µM (inactive) |
